Series [1] concerns MCF7. Kind of series: Antiproliferative activity against human MCF7 cells assessed as cell growth inhibition measured after 48 hrs by CCK8 assay. It is filed as functional, cell-based. Conditions: MCF7, 48 h. (Tetrazolium dyes change colour on reduction, which living cells bring about.)
Series [2] relates to MCF7. The series is described as follows: Induction of apoptosis in human MCF7 cells measured after 48 hrs by Annexin-V/FITC-propidium iodide staining based flow cytometry analysis. It is filed as functional, cell-based. Conditions: dose 2.5-10 µM. For orientation: A flow cytometer gives signals particle by particle.
Series [3] concerns K562. Kind of series: Induction of apoptosis in human K562 cells measured after 48 hrs by Annexin-V/FITC-propidium iodide staining based flow cytometry analysis. Format: functional, cell-based. Conditions: dose 2.5-10 µM.
Series [4] deals with A549. The series is described as follows: Induction of apoptosis in human A549 cells measured after 48 hrs by Annexin-V/FITC-propidium iodide staining based flow cytometry analysis. Format: functional, cell-based. Conditions: dose 2.5-10 µM.
The test system of series [5] is A549. The series is described as follows: Induction of apoptosis in human A549 cells assessed as increase in sum of early and late apoptotic cells at 2.5 to 10 uM measured after 48 hrs by Annexin-V/FITC-propidium iodide staining based flow cytometry analysis. It is filed as functional, cell-based. Conditions: dose 2.5-10 µM.
Series [6] concerns MCF7. The series is described as follows: Cycle arrest in human MCF7 cells assessed as increase in cell population at S phase measured after 24 hrs by propidium iodide/RNase staining based flow cytometry. It is filed as functional. The note with it: dose 2.5-10 µM.
For series [7], the system named is A549. The series is described as follows: Cycle arrest in human A549 cells assessed as increase in cell population at S phase measured after 24 hrs by propidium iodide/RNase staining based flow cytometry. Conditions: dose 2.5-10 µM. It is filed as functional.
Series [8] deals with T1, Protein deacetylase HDAC6 (Homo sapiens) (UniProt Q9UBN7).
T1 sequence (whole entry): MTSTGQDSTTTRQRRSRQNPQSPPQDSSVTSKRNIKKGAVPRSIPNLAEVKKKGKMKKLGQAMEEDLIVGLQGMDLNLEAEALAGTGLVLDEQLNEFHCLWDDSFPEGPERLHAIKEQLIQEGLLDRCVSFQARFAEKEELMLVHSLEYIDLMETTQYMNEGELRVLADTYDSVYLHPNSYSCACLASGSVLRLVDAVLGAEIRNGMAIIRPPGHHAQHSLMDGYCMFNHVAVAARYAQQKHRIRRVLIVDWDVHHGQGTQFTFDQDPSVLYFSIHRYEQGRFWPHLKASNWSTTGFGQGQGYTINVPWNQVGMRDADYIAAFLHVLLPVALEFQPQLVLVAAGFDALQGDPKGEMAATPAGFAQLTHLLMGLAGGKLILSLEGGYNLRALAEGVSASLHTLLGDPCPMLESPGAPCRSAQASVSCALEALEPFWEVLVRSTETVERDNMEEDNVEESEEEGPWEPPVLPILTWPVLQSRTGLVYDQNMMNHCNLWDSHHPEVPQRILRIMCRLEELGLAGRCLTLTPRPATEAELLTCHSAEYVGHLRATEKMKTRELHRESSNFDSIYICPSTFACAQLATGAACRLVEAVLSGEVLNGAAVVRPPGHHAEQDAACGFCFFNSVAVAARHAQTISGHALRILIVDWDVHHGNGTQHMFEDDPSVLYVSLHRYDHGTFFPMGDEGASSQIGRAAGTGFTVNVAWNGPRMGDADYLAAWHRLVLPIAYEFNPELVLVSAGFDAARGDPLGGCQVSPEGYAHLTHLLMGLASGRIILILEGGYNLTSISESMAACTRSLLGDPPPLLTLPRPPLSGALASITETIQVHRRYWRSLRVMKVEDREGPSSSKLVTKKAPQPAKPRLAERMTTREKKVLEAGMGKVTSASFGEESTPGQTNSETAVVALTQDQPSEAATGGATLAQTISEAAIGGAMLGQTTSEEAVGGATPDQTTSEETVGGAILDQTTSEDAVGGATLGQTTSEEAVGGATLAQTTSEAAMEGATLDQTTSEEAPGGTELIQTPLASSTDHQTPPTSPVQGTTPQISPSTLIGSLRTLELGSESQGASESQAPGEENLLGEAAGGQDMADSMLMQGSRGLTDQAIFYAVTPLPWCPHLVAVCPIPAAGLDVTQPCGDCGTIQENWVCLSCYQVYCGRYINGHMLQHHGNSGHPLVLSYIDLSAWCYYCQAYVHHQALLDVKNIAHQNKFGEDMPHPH
The series is described as follows: Inhibition of HDAC6 in human MCF7 cells assessed as increase in alpha tubulin acetylation measured after 48 hrs by Western blot analysis. Conditions: dose 1-10 µM. It is filed as cell-based. (In general: A western blot detects proteins with antibodies after separation by electrophoresis.)

The target in series [9] is T1, Protein deacetylase HDAC6 (Homo sapiens). The series is described as follows: Inhibition of HDAC6 in human K562 cells assessed as increase in alpha tubulin acetylation measured after 48 hrs by Western blot analysis. It is filed as cell-based. Conditions: dose 1-10 µM.
For series [10] the target is unchanged. The series is described as follows: Inhibition of HDAC6 in human A549 cells assessed as increase in alpha tubulin acetylation measured after 48 hrs by Western blot analysis. It is filed as cell-based. Conditions: dose 1-10 µM.
Series [11] shares this target. Kind of series: Inhibition of HDAC6 in human MCF7 cells assessed as accumulation of acetylation of H3 at 1 to 10 uM measured after 48 hrs by Western blot analysis. The note with it: dose 1-10 µM. Format: cell-based.
Series [12] shares this target. Kind of series: Inhibition of HDAC6 in human A549 cells assessed as accumulation of acetylation of H3 at 1 to 10 uM measured after 48 hrs by Western blot analysis. Format: cell-based. Conditions: dose 1-10 µM.
Series [13] shares this target. The series is described as follows: Inhibition of HDAC6 in human MCF7 cells assessed as accumulation of acetylation of H4 at 1 to 10 uM measured after 48 hrs by Western blot analysis. It is filed as cell-based. The note with it: dose 1-10 µM.
Series [14] addresses Cyclin-dependent kinase 2/4/6 (Homo sapiens) (UniProt P11802+P24941+Q00534). Kind of series: Inhibition of CDK2/4/6 in human A549 cells assessed as decrease in Rb phosphorylation measured after 48 hrs by Western blot analysis. It is filed as cell-based. Conditions: dose 1-10 µM.
Series [15] concerns A549. Kind of series: Induction of apoptosis in human A549 cells assessed as downregulation of Mcl-1 protein measured after 48 hrs by Western blot analysis. It is filed as functional, cell-based. Conditions: dose 1-10 µM.
Series [16] relates to A549. The series is described as follows: Induction of apoptosis in human A549 cells assessed as downregulation of […] protein measured after 48 hrs by Western blot analysis. Format: functional, cell-based. The note with it: dose 1-10 µM.
The subject of series [17] is A549. The series is described as follows: Induction of apoptosis in human A549 cells assessed as increase in PARP cleavage measured after 48 hrs by Western blot analysis. Format: functional, cell-based. Conditions: dose 1-10 µM.
The nature of series [18]: Toxicity in iv dosed BALB/c nude mouse assessed as maximum tolerated dose administered once daily for 5 consecutive days. Conditions: in vivo, time 5 day. Format: organism-based.
Series [19] deals with A549. Kind of series: Antitumor activity against human A549 cells xenografted in BALB/c nude mouse assessed as tumor growth inhibition at 50 mg/kg, iv administered for 21 consecutive days relative to control. Format: functional. Conditions: 504 h, time 21 day, read-out: TGI.
Series [20] deals with A549. Kind of series: Antitumor activity against human A549 cells xenografted in BALB/c nude mouse assessed as reduction in tumor size at 25 to 50 mg/kg, iv administered for 21 consecutive days. The note with it: dose 25-50 mg/kg, time 21.0 day. Format: functional, organism-based.
The subject of series [21] is A549. The series is described as follows: Antitumor activity against human A549 cells xenografted in BALB/c nude mouse assessed as reduction in tumor weight at 25 to 50 mg/kg, iv administered for 21 consecutive days. It is filed as functional, organism-based. The note with it: dose 25-50 mg/kg, time 21.0 day.
Series [22] deals with Protein deacetylase HDAC6 (Mus musculus) (UniProt Q9Z2V5). The series is described as follows: In vivo inhibition of HDAC6 in BALB/c nude mouse xenografted with human A549 cells assessed as increase in alpha tubulin acetylation at 25 to 50 mg/kg, iv administered for 21 consecutive days by immunohistochemical analysis. It is filed as functional, organism-based. Conditions: dose 25-50 mg/kg, time 21.0 day.

The subject of series [23] is Mus musculus. The series is described as follows: In vivo inhibition of CDK2/4/6 in BALB/c nude mouse xenografted with human A549 cells assessed as reduction in Rb phosphorylation at 25 to 50 mg/kg, iv administered for 21 consecutive days by immunohistochemical analysis. It is filed as functional, organism-based. The note with it: dose 25-50 mg/kg.

Active and inactive are the calls of the source. No cut-off for these calls is given here.

Protein deacetylase HDAC6 (Mus musculus), sequence (Q9Z2V5 whole entry): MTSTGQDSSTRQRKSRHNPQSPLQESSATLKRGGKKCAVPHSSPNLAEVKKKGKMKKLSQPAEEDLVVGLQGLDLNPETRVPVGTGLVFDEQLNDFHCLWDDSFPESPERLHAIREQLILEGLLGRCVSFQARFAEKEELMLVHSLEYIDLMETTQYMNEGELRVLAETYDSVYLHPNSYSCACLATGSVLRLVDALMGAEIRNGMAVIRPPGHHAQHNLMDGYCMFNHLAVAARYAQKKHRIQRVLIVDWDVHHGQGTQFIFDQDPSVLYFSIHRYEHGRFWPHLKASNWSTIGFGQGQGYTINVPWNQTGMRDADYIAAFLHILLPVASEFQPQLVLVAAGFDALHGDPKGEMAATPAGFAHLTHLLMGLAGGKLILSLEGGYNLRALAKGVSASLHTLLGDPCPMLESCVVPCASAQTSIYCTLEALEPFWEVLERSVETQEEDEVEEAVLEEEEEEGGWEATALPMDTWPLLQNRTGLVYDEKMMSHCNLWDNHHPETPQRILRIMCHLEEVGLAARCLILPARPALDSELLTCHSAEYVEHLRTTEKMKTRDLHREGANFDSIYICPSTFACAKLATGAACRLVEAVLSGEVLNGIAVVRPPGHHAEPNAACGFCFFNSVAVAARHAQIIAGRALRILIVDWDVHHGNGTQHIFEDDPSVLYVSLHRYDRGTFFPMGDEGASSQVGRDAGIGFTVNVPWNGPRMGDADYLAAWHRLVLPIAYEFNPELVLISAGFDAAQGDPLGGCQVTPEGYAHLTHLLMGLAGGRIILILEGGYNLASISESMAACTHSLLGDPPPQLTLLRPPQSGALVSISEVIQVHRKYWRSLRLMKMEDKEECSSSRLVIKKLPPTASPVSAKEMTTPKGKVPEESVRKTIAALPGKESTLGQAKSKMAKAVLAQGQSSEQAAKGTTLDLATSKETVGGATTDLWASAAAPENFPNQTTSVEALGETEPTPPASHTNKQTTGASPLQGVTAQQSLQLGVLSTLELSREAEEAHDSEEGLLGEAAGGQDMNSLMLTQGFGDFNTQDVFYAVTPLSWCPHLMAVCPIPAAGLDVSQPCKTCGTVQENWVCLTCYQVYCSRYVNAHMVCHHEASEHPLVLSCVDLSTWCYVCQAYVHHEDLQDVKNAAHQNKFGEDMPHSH

Take `O=C(CCCO/N=C1/C(=C2/C(=O)Nc3ccccc32)Nc2ccccc21)NO`: the half-inhibitory concentration (IC50) (in general, the concentration that inhibits the measured activity by half) in series [1] was determined as 2900 nM. For the same compound, the Activity entry in [2], in [3], in [4], in [6], in series [7] and in series [15] was “Dose-Dependent Effect” throughout. In addition, the Activity result in series [16] and in series [17] was “Dose-Dependent Effect” each time. Besides, the result in [5], in [20] and in series [21] was Active. For the same compound, the inhibition result in series [8], in series [9], in [10] and in series [14] was “Dose-Dependent Effect” throughout. Moreover, the inhibition entry in [11], in series [12] and in [13] was “inactive” throughout. Moreover, the maximum tolerated dose (MTD) – broadly, the largest dose that counted as tolerated – at 120 h in series [18] is ≤ 200 mg/kg. Also, the inhibition in vivo at 50 mg/kg in [19] stood at 66.6%. Besides, the inhibition entry in series [22] and in [23] was “Active” throughout.

The values are drawn from ChEMBL document CHEMBL4842385, “Indirubin Derivatives as Dual Inhibitors Targeting Cyclin-Dependent Kinase and Histone Deacetylase for Treating Cancer” (J Med Chem, 2021).
